We go through eleven compounds from ChEMBL document CHEMBL1201862, “PubChem BioAssay data set” (2004).

Test systems include A549; ACHN; CAKI-1; HL-60; MDA-MB-435; MDA-N; NCI-H23; OVCAR-3; OVCAR-5; SF-295; SK-MEL-2; SN12C; SNB-19; T47D; TK-10; Malme-3M; OVCAR-8; SF-268; SNB-75; NCI-H226.
Holding throughout (assay): NCI anticancer screen, dose series, 48 h

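Where inhibition never reached the appropriate level, the endpoint shown equals the highest concentration tested. Otherwise, values were interpolated linearly from a five-concentration, 48-hour dose response in 96-well plates. Abbreviation: GI50, concentration required for 50% inhibition of growth.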 The source made the active and inactive calls. No stated cut-off is given here; in the data, active = GI50 up to about 1.1 µM and inactive = higher. Residues, ends and D or L forms follow the SMILES beside them. *: point of attachment. Boc = CC(C)(C)OC(=O)*; OBn = c1ccc(CO*)cc1

In the case of `CC1=CC[C@@H]2[C@@H](CC[C@@]2(C)O)C(C)(C)[C@H]1CC[C@@H]1[C@@]2(C)CC[C@@H](O)C(C)(C)O[C@@H]2CC[C@]1(C)O`, the GI50 with A549 is 27.3 µM (inactive); with ACHN it was 23.2 µM (inactive); in the experiment with CAKI-1, 20 µM (inactive); with HL-60 it was 21.4 µM (inactive); in the experiment with MDA-MB-435, 22.3 µM (inactive); in the experiment with MDA-N it was 22.5 µM (inactive). The GI50 in the experiment on NCI-H23 was 24.5 µM (inactive); in the experiment on OVCAR-3 it was 42.8 µM (inactive); with OVCAR-5, 29.9 µM (inactive); with SF-295 it was 33.1 µM (inactive); in the experiment on SK-MEL-2, 34 µM (inactive); in the experiment on SN12C it was 24.9 µM (inactive). In addition, the GI50 in the experiment with SNB-19 was 14.2 µM (inactive); in the experiment on T47D, 39.2 µM (inactive); with TK-10 it was 35.6 µM (inactive).

In the case of `CO[C@]12CC(=O)C3(C(C[C@H]4CC5CC[C@H]6C[C@@H](OC(C)=O)CC[C@]6(OC(C)=O)C5C[C@@]43C)C1)C1C[C@H]3[C@@H]4CC[C@H]5C[C@@H](OC(C)=O)CC[C@]5(OC(C)=O)[C@H]4CC[C@]3(C)C12` (stereo partly specified), the GI50 was 61.2 µM (inactive) with A549; > 100 µM (inactive) with ACHN; > 100 µM (inactive) in the experiment with CAKI-1; 56 µM (inactive) with MDA-MB-435; 98.2 µM (inactive) with MDA-N; > 100 µM (inactive) in the experiment on Malme-3M. Besides, the GI50 in the experiment on NCI-H23 was 83.4 µM (inactive); with OVCAR-3, > 100 µM (inactive); in the experiment with OVCAR-5 it was > 100 µM (inactive); with OVCAR-8 it was 46 µM (inactive); in the experiment with SF-268, > 100 µM (inactive); in the experiment on SF-295 it was 61.5 µM (inactive). The GI50 in the experiment with SK-MEL-2 was > 100 µM (inactive); in the experiment on SN12C, > 100 µM (inactive); in the experiment on SNB-19, 82.8 µM (inactive); with SNB-75, > 100 µM (inactive); in the experiment on T47D, 37 µM (inactive); with TK-10, > 100 µM (inactive).

Take `CC1CC[C@@]2(OC1)OC1C[C@H]3[C@@H]4CCC5CC(O)CC[C@]5(C)[C@H]4C/C(=N\N(C)C)[C@]3(C)C1[C@@H]2C` (stereo partly specified): the GI50 in the experiment with A549 was 35.3 µM (inactive); in the experiment with ACHN it was 30.3 µM (inactive); in the experiment with HL-60, 22.2 µM (inactive); with MDA-MB-435, 19.5 µM (inactive); with MDA-N it was 19.9 µM (inactive); with Malme-3M, 33.1 µM (inactive). In addition, the GI50 in the experiment with NCI-H226 was 34.2 µM (inactive); with NCI-H23, 20.3 µM (inactive); with OVCAR-3, 17.9 µM (inactive); with OVCAR-5 it was 27.1 µM (inactive); in the experiment with SF-268 it was 31.1 µM (inactive); in the experiment on SK-MEL-2 it was 20.5 µM (inactive). Moreover, the GI50 in the experiment with SN12C is 24.8 µM (inactive); in the experiment with SNB-19 it was 30.1 µM (inactive); in the experiment with T47D, 31.8 µM (inactive); with TK-10, 29.2 µM (inactive).

As to `CCOC(=O)C(NC(=O)CC)(Nc1ccc(F)cc1F)C(F)(F)F` (stereo unspecified), the GI50 in the experiment on A549 is > 100 µM (inactive); with ACHN it was > 100 µM (inactive); in the experiment with CAKI-1 it was 1.31 µM (inactive); in the experiment on HL-60 it was 34 µM (inactive); in the experiment on MDA-MB-435 it was 40.7 µM (inactive); in the experiment with MDA-N, 31.9 µM (inactive). For the same compound, the GI50 in the experiment with NCI-H23, with OVCAR-5, with OVCAR-8, with SF-268, in the experiment with SK-MEL-2 and in the experiment with SN12C was > 100 µM (inactive) each time. Further, the GI50 in the experiment with SNB-19 is > 100 µM (inactive); in the experiment on SNB-75 it was 83 µM (inactive); in the experiment with T47D, > 100 µM (inactive); with TK-10, > 100 µM (inactive).

Regarding `COc1ccccc1C(O)[C@@H]1C[C@@H]2[C@H]3CC[C@@](C)([C@@H]2O1)C3(C)C` (stereo partly specified), the GI50 was 21.2 µM (inactive) in the experiment with A549; 19.1 µM (inactive) in the experiment with ACHN; 23.8 µM (inactive) in the experiment on CAKI-1; 20 µM (inactive) in the experiment with HL-60; 18.5 µM (inactive) in the experiment on MDA-MB-435; 16.7 µM (inactive) in the experiment with MDA-N. Further, the GI50 is 15 µM (inactive) in the experiment on Malme-3M; 19.5 µM (inactive) with NCI-H23; 17.1 µM (inactive) with OVCAR-3; 19.5 µM (inactive) with OVCAR-5; 18.2 µM (inactive) in the experiment with OVCAR-8; 22.9 µM (inactive) with SF-268. For the same compound, the GI50 was 18.4 µM (inactive) with SF-295; 18.1 µM (inactive) in the experiment with SK-MEL-2; 16.4 µM (inactive) with SN12C; 22.8 µM (inactive) in the experiment with SNB-19; 16.9 µM (inactive) in the experiment on SNB-75; 16.4 µM (inactive) with T47D. For the same compound, the GI50 in the experiment on TK-10 is 21.8 µM (inactive).

As to `CNC(=S)NNc1ncnc2c1c(-c1ccc(Cl)cc1)cn2-c1ccc(C)cc1`, the GI50 in the experiment with A549 was 4.67 µM (inactive); in the experiment with ACHN, 10 µM (inactive); in the experiment on CAKI-1, 8.07 µM (inactive); with HL-60 it was 2.81 µM (inactive); in the experiment on MDA-MB-435, 8.34 µM (inactive); with MDA-N, 8.61 µM (inactive). Moreover, the GI50 in the experiment with Malme-3M was 13.1 µM (inactive); in the experiment on NCI-H226, 24.6 µM (inactive); in the experiment with NCI-H23, 13.2 µM (inactive); in the experiment on OVCAR-3 it was 11.5 µM (inactive); in the experiment with OVCAR-5, 14.7 µM (inactive); with OVCAR-8, 9.48 µM (inactive). The GI50 in the experiment on SF-268 was 10.2 µM (inactive); in the experiment with SF-295, 6.05 µM (inactive); in the experiment on SK-MEL-2 it was 13.6 µM (inactive); with SN12C, 11.1 µM (inactive); in the experiment with SNB-19, 17.6 µM (inactive); with T47D it was 8.49 µM (inactive). Moreover, in the experiment on TK-10, the GI50 was 18.8 µM (inactive).

Regarding `CN1C(=O)C(/C=N/NC(=O)c2cccnc2)C(N)N(C)C1=O` (stereo unspecified), the GI50 in the experiment on A549, in the experiment with ACHN, in the experiment with CAKI-1, in the experiment with MDA-MB-435, in the experiment with MDA-N and in the experiment with Malme-3M was > 100 µM (inactive) each time. Besides, the GI50 with NCI-H226, with NCI-H23, with OVCAR-3, with OVCAR-5, with OVCAR-8 and in the experiment on SF-268 was > 100 µM (inactive) throughout. In addition, the GI50 in the experiment on SF-295 is > 100 µM (inactive); in the experiment with SK-MEL-2, 35.3 µM (inactive); in the experiment on SN12C, > 100 µM (inactive); with SNB-19, > 100 µM (inactive); with SNB-75, > 100 µM (inactive); in the experiment on T47D, > 100 µM (inactive). For the same compound, in the experiment with TK-10, the GI50 was > 100 µM (inactive).

Take `Cc1ccc(-c2nnc(CCCCCCCCc3nnc(-c4ccc(C)cc4O)n3N)n2N)c(O)c1`: the GI50 is > 100 µM (inactive) in the experiment with A549; > 100 µM (inactive) with ACHN; > 100 µM (inactive) in the experiment with CAKI-1; > 10 µM (inactive) in the experiment with HL-60; > 100 µM (inactive) with MDA-MB-435; > 100 µM (inactive) with MDA-N. Moreover, the GI50 in the experiment with Malme-3M, in the experiment with NCI-H23, in the experiment on OVCAR-3, in the experiment on OVCAR-5, in the experiment with OVCAR-8 and in the experiment on SF-268 was > 100 µM (inactive) in each case. Moreover, the GI50 with SF-295 was 77.1 µM (inactive); in the experiment on SK-MEL-2, > 100 µM (inactive); in the experiment on SN12C, > 100 µM (inactive); in the experiment with SNB-19, 61.8 µM (inactive); in the experiment on SNB-75, 33.9 µM (inactive); with T47D, 56.5 µM (inactive). For the same compound, the GI50 in the experiment on TK-10 was > 100 µM (inactive).

For `CC(=O)c1sc(Nc2ccc(Cl)c(Cl)c2)nc1C`, the GI50 with A549 was 96.6 µM (inactive); in the experiment on ACHN, 70.6 µM (inactive); in the experiment on CAKI-1, 74.3 µM (inactive); in the experiment on MDA-MB-435, > 100 µM (inactive); in the experiment on MDA-N, > 100 µM (inactive); in the experiment with Malme-3M it was > 100 µM (inactive). The GI50 was 78 µM (inactive) with NCI-H226; > 100 µM (inactive) with NCI-H23; 29.8 µM (inactive) in the experiment with OVCAR-3; > 100 µM (inactive) in the experiment with OVCAR-5; > 100 µM (inactive) in the experiment on OVCAR-8; > 100 µM (inactive) with SF-268. In addition, the GI50 with SF-295 was 35.1 µM (inactive); in the experiment with SN12C, > 100 µM (inactive); in the experiment on SNB-19, > 100 µM (inactive); in the experiment on SNB-75 it was 54.1 µM (inactive); in the experiment with T47D, 40 µM (inactive); in the experiment on TK-10 it was > 100 µM (inactive).

For the compound `N#Cc1c(N)nc2[nH]nc(N)c2c1-c1ccccc1`, the GI50 with A549 was 6.58 µM (inactive); in the experiment on ACHN, 4.63 µM (inactive); in the experiment on CAKI-1, 3.2 µM (inactive); in the experiment with HL-60, 11.2 µM (inactive); in the experiment with MDA-MB-435, 6.93 µM (inactive); in the experiment on MDA-N, 6.04 µM (inactive). In addition, the GI50 was 4.73 µM (inactive) with Malme-3M; 11.8 µM (inactive) with NCI-H226; 6.49 µM (inactive) in the experiment with NCI-H23; 3.72 µM (inactive) in the experiment with OVCAR-3; 14.9 µM (inactive) in the experiment on OVCAR-5; 12.5 µM (inactive) in the experiment on OVCAR-8. The GI50 is 10.2 µM (inactive) in the experiment with SF-268; 6.04 µM (inactive) in the experiment with SF-295; 3.4 µM (inactive) with SK-MEL-2; 5.33 µM (inactive) in the experiment on SN12C; 16.1 µM (inactive) with SNB-19; 0.452 µM (active) with T47D. Moreover, the GI50 with TK-10 was 5.6 µM (inactive).

Regarding `CC(C)C(NC(=O)C(Cc1ccccc1)NC(=O)OC(C)(C)C)C(=O)NCC(=O)OCc1ccccc1` (stereo not drawn) (Boc-Phe-Val-Gly-OBn; configuration not given here), the GI50 with ACHN is 17.5 µM (inactive); in the experiment on CAKI-1 it was 18.8 µM (inactive); in the experiment with HL-60, 13.4 µM (inactive); with MDA-MB-435, 6.92 µM (inactive); in the experiment on MDA-N, 19.4 µM (inactive); in the experiment on Malme-3M, 18.5 µM (inactive). Further, the GI50 is 16.8 µM (inactive) in the experiment on NCI-H23; 14.4 µM (inactive) with OVCAR-3; 15.1 µM (inactive) in the experiment with OVCAR-5; 19.5 µM (inactive) in the experiment with OVCAR-8; 14.7 µM (inactive) in the experiment on SF-268; 18.6 µM (inactive) in the experiment with SF-295. The GI50 was 17.8 µM (inactive) in the experiment on SK-MEL-2; 18 µM (inactive) with SN12C; 25.6 µM (inactive) in the experiment on SNB-19; 20.5 µM (inactive) with SNB-75; 18.7 µM (inactive) with T47D; 13 µM (inactive) in the experiment on TK-10.
